Reference: US20110160296A1, “PREPARATION OF 6-OXA-8ALPHA-STEROID ESTROGEN ANALOGUES - A NEW GROUP OF UNNATURAL ESTROGENS AND THEIR USE IN MEDICINE” (TOPASS GMBH, priority 2007, published 2011)

Assays:
[1] = tested on: ovariectomised rats; test: Ovariectomized rat assay: body weight, uterus, femur, serum cholesterol and triglycerides; format: in vivo, rats (Sprague Dawley); conditions: n = 20
Procedure: (§1) The investigation of biological properties of steroids was carried out on sham operated and ovariectomized rats (Sprague Dawley) under the following conditions: compounds IV, XII, XIV and XV were given in olive oil, daily for 35 days.

[2] = tested on: female mouse-hybrids F1CBAxC57BI6; test: Influence on spleen, antibody-forming cells and thymus of mice after single per os dose; format: in vivo; conditions: female mouse-hybrids F1CBAxC57BI6, per os single-dosing administration (5 mg/kg of BW)
Description: Method is described in the article.

[3] = tested on: ovariectomised rats; test: Effects on serum lipids and liver lipids of ovariectomised rats; format: in vivo, rats (Sprague Dawley)
Procedure: as §1

[4] = tested on: ovariectomised rats, brain tissue; test: Lipid peroxidation parameters in brain tissue of ovariectomised rats (antioxidant action); format: in vivo; conditions: per os in olive oil, single dose of 5 mg per 100 g of body weight the day before euthanasia
Procedure: The experimental conditions: compound XVI was given per os in olive oil as a single dose of 5 mg per 100 g of body weight the day before euthanasia. […] Control group of animals were treated using olive oil without steroids.
Schiff bases contain was calculated in conventional units according to fluorometric data; triene conjugates—in conventional units—according to the spectrophotometer data under wave-length 274 nm.

[5] = Table 5, 5 mg/kg of body weight in olive oil, daily for 35 days
[6] = Table 1, 0.5 mg/kg BW in olive oil, daily for 35 days
[7] = Table 2, 0.1 mg/kg intramuscular injection
[8] = Table 3, 0.2 mg/kg intramuscular injection
[9] = Table 3, 0.5 mg/kg intramuscular injection
[10] = Table 5, 0.05 mg/kg of body weight

## COc1ccc2c(c1)O[C@H](C)[C@H]1[C@@H]2CC[C@]2(C)C(=O)CCC[C@@H]12 [compound XIV, 7β-Methyl-D-homo-6-oxa-8α-estrone methyl ether]
[1]; [5]
  Change of body weight: 51 ± 4 g
  Femur weight index (ash femur weight/wet femur weight): 0.392 ± 0.004
  Serum cholesterol: 54.5 ± 2.8 mg/dL
  Serum triglycerides: 62.2 ± 5.2 mg/dL
  Uterus weight index: 34 ± 2 mg/100 g BW

## CC(=O)Oc1ccc2c(c1)OC[C@H]1[C@@H]2CC[C@]2(C)C(=O)CC[C@@H]12 [compound IV, 6-Oxa-8α-estrone acetate]
[1]; [6]
  Change of body weight: 45.5 ± 3.8 g
  Femur weight index (ash femur weight/wet femur weigh): 0.4219 ± 0.005 mg/mg
  Serum cholesterol: 51.9 ± 1.7 mg/dL
  Uterus weight index: 71.8 ± 3.6 mg/100 g BW

## C[C@H]1Oc2cc(O)ccc2[C@H]2CC[C@]3(C)C(=O)CCC[C@H]3[C@H]21 [compound XV]
[1]; [5]
  Change of body weight: 48 ± 4 g
  Femur weight index (ash femur weight/wet femur weight): 0.390 ± 0.004
  Serum cholesterol: 52.2 ± 2.6 mg/dL
  Uterus weight index: 33 ± 3 mg/100 g BW
[2]
  content of antibody-forming cells: does not influence
  mass and number of cells in spleen: does not influence
  mass and number of cells in the thymus: does not influence

## COc1ccc2c(c1)OC[C@H]1[C@@H]2CC[C@]2(C)C(=O)CCC[C@@H]12 [compound XII, 6-Oxa-D-homo-8α-estrone methyl ether]
[3]; [7]
  Liver lipids Cholesterol: 2.69 ± 0.06 mg/g
  Liver lipids Triglycerides: 5.21 ± 0.49 mg/g
  Serum lipids Cholesterol: 1.68 ± 0.06 mmol/L
  Serum lipids Triglycerides: 0.42 ± 0.05 mmol/L
[3]; [8]
  Liver lipids Cholesterol: 2.69 ± 0.06 mg/g
  Liver lipids Triglycerides: 3.72 ± 0.51 mg/g
  Serum lipids Cholesterol: 1.04 ± 0.12 mmol/L
  Serum lipids Triglycerides: 0.85 ± 0.05 mmol/L
[3]; [9]
  Liver lipids Cholesterol: 2.31 ± 0.06 mg/g
  Liver lipids Triglycerides: 3.17 ± 0.32 mg/g
  Serum lipids Cholesterol: 0.85 ± 0.08 mmol/L
  Serum lipids Triglycerides: 0.94 ± 0.05 mmol/L
[3]; Table 4, 0.2 mg/kg per os
  Liver lipids Cholesterol: 3.45 ± 0.15 mg/g
  Liver lipids Triglycerides: 7.1 ± 0.6 mg/g
  Serum lipids Cholesterol: 0.99 ± 0.08 mmol/L
  Serum lipids Triglycerides: 1.45 ± 0.14 mmol/L

## COc1ccc2c(c1)O[C@H](C)[C@H]1[C@@H]2CC[C@]2(C)[C@@H](OC(C)=O)CCC[C@@H]12 [Compound XVI]
[4]; control 0.209 ± 0.022
  Triene conjugates: 0.152 ± 0.022 conventional units/mg of phospholipids
[4]; control 0.70 ± 0.01
  Klein coefficient: 0.71 ± 0.05
[4]; control 1.65 ± 0.14
  Malonic dialdehyde: 1.80 ± 0.18 nmol/mg of phospholipids
[4]; control 12.2 ± 0.7
  Diene conjugates: 9.5 ± 1.0 nmol/mg of phospholipids
[4]; control 129 ± 10
  Schiff bases: 96 ± 6 conventional units/mg of phospholipids

## C#C[C@]1(O)CC[C@H]2[C@@H]3CCc4cc(O)ccc4[C@H]3CC[C@@]21C [EE, 17α-Ethynylestradiol, reference compound]
[1]; Table 1, 0.1 mg/kg BW
  Change of body weight: 23.0 ± 4.3 g
  Serum cholesterol: 30.0 ± 1.7 mg/dL
  Uterus weight index: 154.0 ± 7.8 mg/100 g BW
[1]; [10]
  Change of body weight: 3 ± 4 g
  Femur weight index (ash femur weight/wet femur weight): 0.436 ± 0.004
  Serum cholesterol: 45.5 ± 2.1 mg/dL
  Serum triglycerides: 129.8 ± 14.5 mg/dL
  Uterus weight index: 164 ± 11 mg/100 g BW
